Key:
[1] = biological target: T1, Lanosterol 14-alpha demethylase (Homo sapiens, UniProt Q16850); experiment: Binding affinity for cytochrome P450 14DM; set-up: species or system Saccharomyces cerevisiae
T1 sequence (Q16850 whole entry): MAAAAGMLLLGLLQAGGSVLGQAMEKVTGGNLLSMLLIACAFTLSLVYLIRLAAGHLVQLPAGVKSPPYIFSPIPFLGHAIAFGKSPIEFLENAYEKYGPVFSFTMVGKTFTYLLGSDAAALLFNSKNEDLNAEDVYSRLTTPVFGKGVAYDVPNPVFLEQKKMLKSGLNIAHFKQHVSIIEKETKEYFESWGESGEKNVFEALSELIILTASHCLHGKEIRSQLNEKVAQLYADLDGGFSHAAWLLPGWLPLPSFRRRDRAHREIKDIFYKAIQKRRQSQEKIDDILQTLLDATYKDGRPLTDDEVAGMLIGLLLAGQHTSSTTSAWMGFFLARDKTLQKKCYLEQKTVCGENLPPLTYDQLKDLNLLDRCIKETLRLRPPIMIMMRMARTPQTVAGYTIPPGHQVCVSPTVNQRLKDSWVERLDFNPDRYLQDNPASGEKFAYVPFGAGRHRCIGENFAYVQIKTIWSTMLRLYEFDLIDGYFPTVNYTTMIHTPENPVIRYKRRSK

[2] = Specific activity was determined; format: functional; settings: tested as the 3H-labelled form
[3] = Photolysis at 264 nm in phosphate buffer; format: ADME; set-up: dose or concentration left out as unconfirmed
P45014DM = experiment: Photolysis after effective incorporation into P45014DM at 313 nm in phosphate buffer; format: ADME; set-up: dose or concentration left out as unconfirmed; settings: compound incorporated into P45014DM

Compound | Kd [1] | half-life [3] | half-life (P45014DM) | Activity [2]
[N-]=[N+]=Nc1ccc(-n2ccnc2)cc1 | 25 µM | – | – | –
[3H]C(O)(Cn1ccnc1)c1ccc(N=[N+]=[N-])cc1 (configuration not stated) | – | 2.5 min | 45 min | –

More lines, main results first:

Kd [1] | half-life [3] | half-life (P45014DM) | Compound | Activity [2]
15 µM | – | – | [N-]=[N+]=Nc1ccc(Cn2ccnc2)cc1 | –
18 µM | – | – | [N-]=[N+]=Nc1ccc(C(=O)Cn2ccnc2)cc1 | –
1.4 µM | – | – | [N-]=[N+]=Nc1ccc(C(O)Cn2ccnc2)cc1 (configuration not stated) | 26.4 mCi/M

Reference: ChEMBL document CHEMBL1126167, “Synthesis and evaluation of photoaffinity probes directed at lanosterol 14-demethylase (P-45014DM)” (Bioorg Med Chem Lett, 1992)
